These are literature values, as cited in patent US10696827B2, “Polyolefin composition comprising an antimicrobial additive” (SABIC GLOBAL TECHNOLOGIES B.V., priority 2015, dated 2020).

This series concerns Staphylococcus aureus. As to conditions: >0.4% of additive in LDPE catheter, rabbits, subcutaneous.

Regarding `CCCCCCc1ccc(O)cc1O` [4-n-hexyl resorcinol], the infection entry is reported as “little to no infection”.
